Measured values taken from patent US8350033B2, “4-((3, 5, 6-trimethylpyrazine-2-yl) methoxyl) benzoic acid and its derivatives” (priority 2007, dated 2013).

What was measured:
[1] = tested on: aggregation of platelet; assay: Experiment of resisting platelet aggregation (ADP-induced, platelet-rich plasma, absorbance at 600 nm); type: cell-based, rabbit; details: for IC50: Oryctolagus cuniculus, rabbit platelet-rich plasma, ADP final concentration of 4 μmol/L, read-out: IC50 (50% inhibitory concentration) on aggregation of platelet
Procedure: Experiment of resisting platelet aggregation with the ligustrazine aromatic acid ether derivatives: Anaesthetizing intravenously a rabbit with 3% pentobarbital sodium, separating arteria carotis communis and taking blood by inserting a pipe, using 3.8% sodium citrate solution (dissolving 3.8 g sodium citrate with distilled water, up to 100 mL, filtering, bottling, sterilizing under 121° C. and high pressure for 15 min) as an anticoagulant (1:9), 1000 r/min, centrifuging for 5 min to prepare platelet-rich plasma (PRP), 3000 r/min, centrifuging for 15 min to prepare platelet-poor plasma (PPP). Cultivating the PRP under 37° C. in a silicified cuvette for 5 min, measuring absorbance (A) at 600 nm, adjusting the absorbance of the PRP to 0.6-0.7 with the PPP, adding 1.7 mL adjusted PRP into another silicified cuvette, adding 200 μL of the test drug, measuring the absorbance at 600 nm before adding […], then adding 100 μL of ADP (final concentration of 4 μmol/L), respectively measuring the absorbance when 2 and 5 min after adding the ADP, calculating aggregation rate (AR) by the following formula: AR=(A before adding the ADP−A after adding the ADP)/A before adding the ADP (100%.). At the same time, calculating aggregation inhibition rate (AIR) of the tested drug to platelet: AIR=[1−(aggregation percentage in administrated tube/aggregation percentage in contrast tube)]×100. Calculating 50% inhibitory concentration (IC50) of the tested drug, referring to table 2.

Row | melting point | IC50 [1] [µM] | SMILES | antiplatelet aggregative activity compared with Ozagrel positive drug (in words) ([1]; rabbit PRP, ADP) | antiplatelet aggregative activity relative to Ozagrel ([1]; ratio to Ozagrel positive drug, rabbit PRP, ADP) [times]
1 | 183 to 185 °C |  | COc1cc(C(=O)O)ccc1OCc1nc(C)c(C)nc1C [Example 5, 4-((3,5,6-trimethylpyrazine-2-yl)methoxyl)-3-methoxybenzoic acid] |  | 
2 | 190 to 192 °C | 1000 | COc1ccc(C(=O)O)cc1OCc1nc(C)c(C)nc1C [MC5, 3-((3,5,6-trimethylpyrazine-2-yl)methoxyl)-4-methoxybenzoic acid] | stronger than Ozagrel | 

Second part, the molecule before the results:

Row | SMILES | melting point | IC50 [1] [µM] | antiplatelet aggregative activity compared with Ozagrel positive drug (in words) ([1]; rabbit PRP, ADP) | antiplatelet aggregative activity relative to Ozagrel ([1]; ratio to Ozagrel positive drug, rabbit PRP, ADP) [times]
3 | COc1cc(C(=O)O)cc(OC)c1OCc1nc(C)c(C)nc1C [Example 2, 4-((3,5,6-trimethylpyrazine-2-yl)methoxyl)-3,5-dimethoxybenzoic acid] | > 218 °C (dec.) |  |  | 
4 | O=C(O)/C=C/c1ccc(Cn2ccnc2)cc1 [Ozagrel, reference compound] |  | 1600 |  | 
5 | COc1cc(/C=C/C(=O)O)ccc1OCc1nc(C)c(C)nc1C [MC2, (E)-3-(4-((3,5,6-Trimethylpyrazin-2-yl)methoxy)-3-methoxyphenyl)acrylic acid] | 156 to 158 °C | 280 | stronger than Ozagrel | 5.7
6 | Cc1nc(C)c(COc2ccc(C(=O)O)cc2)nc1C [MC1, 4-((3,5,6-trimethylpyrazine-2-yl)methoxyl)benzoic acid] | 179 to 181 °C | 1360 | stronger than Ozagrel | 
